Key:
cucumber downy mildew = test: protectant activity in vivo against cucumber downy mildew
Diamond back moth = test: insecticidal activity against diamond back moth, airbrush spray; type: in vivo
Procedure, shortened: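 Airbrush leaf-disc spray test: both faces of 2 cm cabbage discs received 0.5 ml of test solution at 0.7 kg/cm^2. Solutions were made in acetone:methanol (1:1) and brought to concentration with 0.1% Tween 80 in water. Ten second-instar larvae per disc, triplicates, were held at 25° C and 60˜70% R.H., with mortality recorded at 72 hrs.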

wheat powdery mildew = test: protectant activity in vivo against wheat powdery mildew
[1] = system: Green peach aphids (Myzus Persicae Sulzer); test: bioactivity test against green peach aphid, airbrush foliar spray; type: in vivo
Procedure, shortened: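 Death rate was scored at 48 hrs, held at 25±1 C and 60±5% RH, following airbrush foliar spray (0.5 mL, 10 psi) onto cabbage leaf discs bearing about 15-30 aphids. Test solutions: compound dissolved in 1:1 acetone:methanol, brought to concentration with 0.1% tween 80 water.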

carmine spider mite = test: bioactivity test against carmine spider mite, airbrush spray; type: in vivo
Procedure, shortened: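 Broadbean seedlings infested with adult mites were sprayed with compound (acetone/methanol stock diluted in 0.1% Tween 80 water) by airbrush at 0.7 kg/cm^2, 0.5 ml. Three replicates were run. Mortality was scored after 72 hrs.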

corn rust = test: protectant activity in vivo against corn rust
armyworm = test: bioactivity test against armyworm, airbrush spray; type: in vivo
[2] = 100 ppm, mortality after 72 hrs
[3] = 600 ppm, mortality after 72 hrs
[4] = 10 ppm, death rate after 48 hrs
[5] = 100 ppm, death rate after 48 hrs
[6] = 600 ppm, death rate after 48 hrs

Cc1ncnc(NCCc2ccc(Oc3ccc(C#N)cc3F)cc2)c1Cl [II-204]
97%: Insecticidal activity against peach aphid (%) ([1]; 2.5 mg/L, contrastive test)
100%: protectant activity against cucumber downy mildew in vivo (cucumber downy mildew; 25 ppm) | protectant activity against cucumber downy mildew in vivo (cucumber downy mildew; 50 ppm) | protectant activity against cucumber downy mildew in vivo (cucumber downy mildew; 100 ppm) | protectant activity against cucumber downy mildew in vivo (cucumber downy mildew; 400 ppm) | Insecticidal activity against diamond back moth (%) (Diamond back moth; 100 mg/L) | Insecticidal activity against diamond back moth (%) (Diamond back moth; 600 mg/L) | control (test results against diamond back moth) (Diamond back moth; [2]) | control (test results against diamond back moth) (Diamond back moth; [3]) | control effect against wheat powdery mildew (%) (wheat powdery mildew; 6.25 mg/L, protectant activity) | control effect against wheat powdery mildew (%) (wheat powdery mildew; 25 mg/L, protectant activity) | control effect against wheat powdery mildew (%) (wheat powdery mildew; 100 mg/L, protectant activity) | control effect against wheat powdery mildew (%) (wheat powdery mildew; 400 mg/L, protectant activity) | protectant activity against wheat powdery mildew in vivo (wheat powdery mildew; 6.25 ppm) | protectant activity against wheat powdery mildew in vivo (wheat powdery mildew; 25 ppm) | protectant activity against wheat powdery mildew in vivo (wheat powdery mildew; 100 ppm) | protectant activity against wheat powdery mildew in vivo (wheat powdery mildew; 400 ppm) | Insecticidal activity against peach aphid (%) ([1]; 5 mg/L, contrastive test) | Insecticidal activity against peach aphid (%) ([1]; 10 mg/L, contrastive test) | Insecticidal activity against peach aphid (%) ([1]; 100 mg/L, contrastive test) | Insecticidal activity against peach aphid (%) ([1]; 600 mg/L, contrastive test) | control (test results against green peach aphid) ([1]; 5 ppm, death rate after 48 hrs) | control (test results against green peach aphid) [1, 4] | control (test results against green peach aphid) [1, 5] | control (test results against green peach aphid) [1, 6] | Insecticidal activity against carmine spider mite (% ) (carmine spider mite; 10 mg/L, contrastive test) | Insecticidal activity against carmine spider mite (% ) (carmine spider mite; 100 mg/L, contrastive test) | Insecticidal activity against carmine spider mite (% ) (carmine spider mite; 600 mg/L, contrastive test) | control against carmine spider mite (carmine spider mite; 10 ppm, mortality after 72 hrs) | control against carmine spider mite (carmine spider mite; [2]) | control against carmine spider mite (carmine spider mite; [3]) | protectant activity against corn rust in vivo (corn rust; 25 ppm) | protectant activity against corn rust in vivo (corn rust; 100 ppm) | protectant activity against corn rust in vivo (corn rust; 400 ppm) | Insecticidal activity against armyworm (%) (armyworm; 100 mg/L) | Insecticidal activity against armyworm (%) (armyworm; 600 mg/L) | control (test results against armyworm) (armyworm; 100 ppm, mortality after 72 h) | control (test results against armyworm) (armyworm; 600 ppm, mortality after 72 h)
60%: Insecticidal activity against peach aphid (%) ([1]; 1.25 mg/L, contrastive test) | Insecticidal activity against carmine spider mite (% ) (carmine spider mite; 2.5 mg/L)
20%: Insecticidal activity against diamond back moth (%) (Diamond back moth; 10 mg/L)
47%: Insecticidal activity against armyworm (%) (armyworm; 10 mg/L)
80%: Insecticidal activity against carmine spider mite (% ) (carmine spider mite; 5 mg/L)

Cc1ncnc(NCCc2ccc(Oc3ccccc3)nc2)c1Cl [III-1]
100%: control effect against cucumber downy mildew (%) (cucumber downy mildew; 12.5 mg/L, protectant activity) | control effect against cucumber downy mildew (%) (cucumber downy mildew; 25 mg/L, protectant activity) | control effect against cucumber downy mildew (%) (cucumber downy mildew; 50 mg/L, protectant activity) | control effect against cucumber downy mildew (%) (cucumber downy mildew; 100 mg/L, protectant activity) | control effect against cucumber downy mildew (%) (cucumber downy mildew; 400 mg/L, protectant activity) | protectant activity against cucumber downy mildew in vivo (cucumber downy mildew; 12.5 ppm) | protectant activity against cucumber downy mildew in vivo (cucumber downy mildew; 25 ppm) | protectant activity against cucumber downy mildew in vivo (cucumber downy mildew; 50 ppm) | protectant activity against cucumber downy mildew in vivo (cucumber downy mildew; 100 ppm) | protectant activity against cucumber downy mildew in vivo (cucumber downy mildew; 400 ppm) | control (test results against diamond back moth) (Diamond back moth; [3]) | control effect against wheat powdery mildew (%) (wheat powdery mildew; 400 mg/L, protectant activity) | protectant activity against wheat powdery mildew in vivo (wheat powdery mildew; 400 ppm) | control (test results against green peach aphid) [1, 6] | control against carmine spider mite (carmine spider mite; [3]) | protectant activity against corn rust in vivo (corn rust; 400 ppm) | control (test results against armyworm) (armyworm; 600 ppm, mortality after 72 h)
98%: control effect against wheat powdery mildew (%) (wheat powdery mildew; 6.25 mg/L, protectant activity) | control effect against wheat powdery mildew (%) (wheat powdery mildew; 25 mg/L, protectant activity) | control effect against wheat powdery mildew (%) (wheat powdery mildew; 100 mg/L, protectant activity)

Cc1ncnc(NCc2ccc(Oc3c(Cl)cc([N+](=O)[O-])cc3Cl)cc2)c1Cl [CK65, reference compound]
86%: pest or weed control at 600 µg/mL (Diamond back moth; 72 h, 600 mg/L)
35%: pest or weed control at 100 µg/mL (Diamond back moth; 72 h, 100 mg/L)
0%: pest or weed control at 400 µg/mL (cucumber downy mildew; Cucumis sativus, 168 h, read-out: control effect against cucumber downy mildew (%), 400 mg/L, protectant activity) | pest or weed control at 400 µg/mL (wheat powdery mildew; Triticum aestivum, 168 h, read-out: control effect against wheat powdery mildew (%), 400 mg/L, protectant activity) | pest or weed control at 600 µg/mL ([1]; Myzus persicae, foliar, 48 h, 600 mg/L, contrastive test, read-out: Insecticidal activity against peach aphid (%)) | pest or weed control at 600 µg/mL (carmine spider mite; Tetranychus cinnabarinus, 72 h, 600 mg/L, contrastive test, read-out: Insecticidal activity against carmine spider mite (% )) | pest or weed control at 400 µg/mL (corn rust; Zea mays, 168 h, read-out: control effect against corn rust (%), 400 mg/L, protectant activity) | pest or weed control at 600 µg/mL (armyworm; 72 h, 600 mg/L, read-out: Insecticidal activity against armyworm (%))
5%: pest or weed control at 10 µg/mL (Diamond back moth; 72 h, 10 mg/L)

Cc1ncnc(NCCc2ccc(Oc3ccc(C(F)(F)F)cn3)cc2)c1Cl [Compound I-6732]
100%: protectant activity against cucumber downy mildew in vivo (cucumber downy mildew; 25 ppm) | protectant activity against cucumber downy mildew in vivo (cucumber downy mildew; 100 ppm) | protectant activity against cucumber downy mildew in vivo (cucumber downy mildew; 400 ppm) | control (test results against diamond back moth) (Diamond back moth; [3]) | protectant activity against wheat powdery mildew in vivo (wheat powdery mildew; 400 ppm) | control (test results against green peach aphid) [1, 4] | control (test results against green peach aphid) [1, 5] | control (test results against green peach aphid) [1, 6] | control against carmine spider mite (carmine spider mite; [3]) | pest or weed control at 100 ppm (carmine spider mite; Tetranychus cinnabarinus, 72 h, 100 ppm, mortality after 72 hrs) | protectant activity against corn rust in vivo (corn rust; 100 ppm) | protectant activity against corn rust in vivo (corn rust; 400 ppm) | control (test results against armyworm) (armyworm; 600 ppm, mortality after 72 h)
80 to 99%: pest or weed control at 6.25 ppm (corn rust; Zea mays, 168 h, read-out: protectant activity against corn rust in vivo, 6.25 ppm)

Cc1ccc(Oc2ccc(CCNc3ncnc(C)c3Cl)cn2)cc1 [III-16]
100%: control effect against cucumber downy mildew (%) (cucumber downy mildew; 6.25 mg/L, protectant activity) | control effect against cucumber downy mildew (%) (cucumber downy mildew; 12.5 mg/L, protectant activity) | control effect against cucumber downy mildew (%) (cucumber downy mildew; 25 mg/L, protectant activity) | control effect against cucumber downy mildew (%) (cucumber downy mildew; 50 mg/L, protectant activity) | control effect against cucumber downy mildew (%) (cucumber downy mildew; 100 mg/L, protectant activity) | control effect against cucumber downy mildew (%) (cucumber downy mildew; 400 mg/L, protectant activity) | protectant activity against cucumber downy mildew in vivo (cucumber downy mildew; 6.25 ppm) | protectant activity against cucumber downy mildew in vivo (cucumber downy mildew; 12.5 ppm) | protectant activity against cucumber downy mildew in vivo (cucumber downy mildew; 25 ppm) | protectant activity against cucumber downy mildew in vivo (cucumber downy mildew; 50 ppm) | protectant activity against cucumber downy mildew in vivo (cucumber downy mildew; 100 ppm) | protectant activity against cucumber downy mildew in vivo (cucumber downy mildew; 400 ppm) | control (test results against diamond back moth) (Diamond back moth; [3]) | protectant activity against wheat powdery mildew in vivo (wheat powdery mildew; 400 ppm) | control (test results against green peach aphid) [1, 5] | control (test results against green peach aphid) [1, 6] | Insecticidal activity against carmine spider mite (% ) (carmine spider mite; 100 mg/L, contrastive test) | Insecticidal activity against carmine spider mite (% ) (carmine spider mite; 600 mg/L, contrastive test) | control against carmine spider mite (carmine spider mite; [2]) | control against carmine spider mite (carmine spider mite; [3]) | protectant activity against corn rust in vivo (corn rust; 400 ppm) | control (test results against armyworm) (armyworm; 600 ppm, mortality after 72 h)

CCc1ncnc(NCCc2ccc(Oc3ncc(Cl)cc3Cl)cc2)c1Cl [Compound I-583]
80 to 99%: pest or weed control at 50 ppm (cucumber downy mildew; Cucumis sativus, 168 h, read-out: protectant activity against cucumber downy mildew in vivo, 50 ppm) | pest or weed control at 100 ppm (wheat powdery mildew; Triticum aestivum, 168 h, read-out: protectant activity against wheat powdery mildew in vivo, 100 ppm) | pest or weed control at 400 ppm (wheat powdery mildew; Triticum aestivum, 168 h, read-out: protectant activity against wheat powdery mildew in vivo, 400 ppm) | pest or weed control at 10 ppm ([1]; Myzus persicae, foliar, 48 h, 10 ppm, death rate after 48 hrs)
100%: pest or weed control at 25 ppm (cucumber downy mildew; Cucumis sativus, 168 h, read-out: protectant activity against cucumber downy mildew in vivo, 25 ppm) | pest or weed control at 100 ppm (cucumber downy mildew; Cucumis sativus, 168 h, read-out: protectant activity against cucumber downy mildew in vivo, 100 ppm) | pest or weed control at 400 ppm (cucumber downy mildew; Cucumis sativus, 168 h, read-out: protectant activity against cucumber downy mildew in vivo, 400 ppm) | pest or weed control at 600 ppm (Diamond back moth; 72 h, 600 ppm, mortality after 72 hrs, read-out: control (test results against diamond back moth)) | pest or weed control at 100 ppm ([1]; Myzus persicae, foliar, 48 h, 100 ppm, death rate after 48 hrs) | pest or weed control at 600 ppm ([1]; Myzus persicae, foliar, 48 h, 600 ppm, death rate after 48 hrs) | pest or weed control at 600 ppm (carmine spider mite; Tetranychus cinnabarinus, 72 h, 600 ppm, mortality after 72 hrs) | pest or weed control at 25 ppm (corn rust; Zea mays, 168 h, read-out: protectant activity against corn rust in vivo, 25 ppm) | pest or weed control at 100 ppm (corn rust; Zea mays, 168 h, read-out: protectant activity against corn rust in vivo, 100 ppm) | pest or weed control at 400 ppm (corn rust; Zea mays, 168 h, read-out: protectant activity against corn rust in vivo, 400 ppm) | pest or weed control at 600 ppm (armyworm; 72 h, 600 ppm, mortality after 72 h)

CCc1ncnc(NCCc2ccc(Oc3ccc(OC)cc3)nc2)c1Cl [III-199]
64%: Insecticidal activity against armyworm (%) (armyworm; 10 mg/L)
87%: Insecticidal activity against carmine spider mite (% ) (carmine spider mite; 10 mg/L, contrastive test)
100%: protectant activity against cucumber downy mildew in vivo (cucumber downy mildew; 100 ppm) | protectant activity against cucumber downy mildew in vivo (cucumber downy mildew; 400 ppm) | control (test results against diamond back moth) (Diamond back moth; [3]) | protectant activity against wheat powdery mildew in vivo (wheat powdery mildew; 400 ppm) | control (test results against green peach aphid) [1, 5] | control (test results against green peach aphid) [1, 6] | Insecticidal activity against carmine spider mite (% ) (carmine spider mite; 100 mg/L, contrastive test) | Insecticidal activity against carmine spider mite (% ) (carmine spider mite; 600 mg/L, contrastive test) | control against carmine spider mite (carmine spider mite; [2]) | control against carmine spider mite (carmine spider mite; [3]) | protectant activity against corn rust in vivo (corn rust; 400 ppm) | Insecticidal activity against armyworm (%) (armyworm; 100 mg/L) | Insecticidal activity against armyworm (%) (armyworm; 600 mg/L) | control (test results against armyworm) (armyworm; 100 ppm, mortality after 72 h) | control (test results against armyworm) (armyworm; 600 ppm, mortality after 72 h)

From patent publication US9770026B2, “Substituted pyrimidine compound and uses thereof” (Shenyang Sinochem Agrochemicals R&D Co., Ltd., priority 2012, dated 2017)
